Source: patent US20260138957A1, “UREA-LINKED 2-AMINOIMIDAZOLE DIMER POTENTIATORS” (UNIVERSITY OF NOTRE DAME DU LAC, priority 2022, published 2026)

Key:
[1] = system: A. baumannii strain 5075 (AB5075); assay: Clarithromycin potentiation against AB5075 (CLR MIC in presence of adjuvant); assay type: cell-based, Acinetobacter baumannii; conditions: for CLR potentiation activity (in words): AB5075, 30 μM
[2] = system: A. baumannii strain 5075 (AB5075); assay: Standalone MIC against AB5075 (compound or antibiotic alone); assay type: cell-based, Acinetobacter baumannii; design: MIC against AB5075 (inherent anti-bacterial activity): unit not given beside the values; conditions: compound alone; for MIC against AB5075 (inherent anti-bacterial activity): newly synthesized material; for MIC: Acinetobacter baumannii, AB5075
Text: Dimers were first analyzed for standalone toxicity against AB5075.

[3] = system: AB5075; assay: Potentiation of azithromycin, erythromycin and rifampin against AB5075; assay type: cell-based, Acinetobacter baumannii; conditions: for activity in combination with AZM, ERM and RIF (in words): AB5075, adjuvant at ≤30% their MIC; for fold decrease of RIF MIC: AB5075, adjuvant at 10 μM
[4] = system: AB 5075; assay: Colistin MIC in absence or presence of compounds against AB 5075; assay type: cell-based, Acinetobacter baumannii; conditions: adjuvant at 30 μM, AB5075
Text: However, dropping LOS comes with fitness costs such as reduced growth rates, lower virulence, and increased sensitivity towards certain antibiotics.

[5] = Plasma stability; assay type: in vitro ADME; conditions: 4 hours
[6] = Microsomal (metabolic) stability; assay type: in vitro ADME; conditions: 60 minutes
[7] = system: panel of A. baumannii isolates; assay: Standalone MIC/toxicity against panel of A. baumannii isolates; assay type: cell-based, Acinetobacter baumannii
[8] = system: A. baumannii; assay: CLR adjuvant activity with exogenous LOS added to the media; assay type: cell-based, Acinetobacter baumannii; conditions: LOS from AB5075 at 0.2 mg/mL or 0.5 mg/mL
Experimental: First, we examined the impact that addition of MgCl2 had on activity. Divalent cations, such as Mg^2+, are known to stabilize the outer membrane of gram-negative bacteria and the activity of membrane disruptors are known to be muted/abrogated by the addition of such cations. When the media was supplemented with MgCl2 (20 mM final concentration), activity was essentially abolished. As suppression of activity could conceivably originate from either blocking the compound's mechanism of action or simply making the membrane more impermeable that leads to the inability of the compound to penetrate the outer membrane, we next studied the impact that the addition of exogenous LOS had upon activity.

[9] = system: panel of A. baumannii isolates; assay: CLR potentiation against panel of A. baumannii isolates; assay type: cell-based, Acinetobacter baumannii; conditions: 25 AB strains, adjuvant at 10 μM (4.8 μg/mL) or less
[10] = system: K. pneumoniae 2146; assay: Combination with RIF against K. pneumoniae 2146; assay type: cell-based, Klebsiella pneumoniae; conditions: K. pneumoniae 2146, compared with the parent dimers
[11] = system: HepG2 cells; assay: Cytotoxicity, XTT assay with HepG2 cells; conditions: mammalian cell toxicity

| Structure (SMILES) | Clarithromycin (CLR) MIC ([1]; adjuvant at 7.5 μM, AB5075) | Fold Reduction of CLR MIC ([1]; adjuvant at 7.5 μM, AB5075) | Clarithromycin (CLR) MIC ([1]; adjuvant at 10 μM, AB5075) | Fold Reduction of CLR MIC ([1]; adjuvant at 10 μM, AB5075) | Clarithromycin (CLR) MIC ([1]; adjuvant at 20 μM, AB5075) | Fold Reduction of CLR MIC ([1]; adjuvant at 20 μM, AB5075) | Clarithromycin (CLR) MIC ([1]; adjuvant at 30 μM, AB5075) | Fold Reduction of CLR MIC ([1]; adjuvant at 30 μM, AB5075) | MIC [2] | also measured |
| --- | --- | --- | --- | --- | --- | --- | --- | --- | --- | --- |
| Nc1nc(-c2ccc(NC(=O)Nc3cccc(-c4c[nH]c(N)n4)c3)cc2)c[nH]1 [Compound 4] |  |  | 16 µg/mL | 2 fold | 1 µg/mL | 32 fold | 0.125 µg/mL | 256 fold |  | MIC ([2]; value in brackets): > 447 µg/mL; MIC against AB5075 (inherent anti-bacterial activity) [2]: > 200; activity in combination with AZM, ERM and RIF (in words) [3]: significant activity; Colistin MIC [4]: 0.25 µg/mL |
| Nc1nc(-c2cccc(NC(=O)Nc3cccc(-c4c[nH]c(N)n4)c3)c2)c[nH]1 [Compound 5] | 1 µg/mL | 32 fold | 0.5 µg/mL | 64 fold | 0.0625 µg/mL | 512 fold | 0.03125 µg/mL | 1024 fold |  | plasma stability (in words) [5]: steady concentration over 4 hours; Clarithromycin (CLR) MIC ([1]; adjuvant at 5 μM, AB5075): 4 µg/mL; Fold Reduction of CLR MIC ([1]; adjuvant at 5 μM, AB5075): 8 fold; MIC ([2]; value in brackets): 447 µg/mL; MIC against AB5075 (inherent anti-bacterial activity) [2]: 200; activity in combination with AZM, ERM and RIF (in words) [3]: significant activity; Colistin MIC [4]: 2 µg/mL; microsomal stability (in words) [6]: steady concentration over 60 minutes |
| Nc1nc(-c2ccc(NC(=O)Nc3ccc(-c4c[nH]c(N)n4)c(F)c3)cc2F)c[nH]1 [Compound 9a] | 0.5 µg/mL | 64 fold | 0.125 µg/mL | 256 fold | 0.0625 µg/mL | 512 fold | 0.03125 µg/mL | 1024 fold | > 200 µM | plasma stability (in words) [5]: steady concentration over 4 hours; Clarithromycin (CLR) MIC ([1]; adjuvant at 5 μM, AB5075): 2 µg/mL; Fold Reduction of CLR MIC ([1]; adjuvant at 5 μM, AB5075): 16 fold; toxicity of compound alone (in words) [7]: no toxicity; fold decrease of RIF MIC [3]: 32 fold; activity in combination with AZM, ERM and RIF (in words) [3]: significant activity; CLR adjuvant activity with exogenous LOS (in words) [8]: no loss of adjuvant activity; lowering of CLR MIC values [9]: at least four-fold; microsomal stability (in words) [6]: steady concentration over 60 minutes; potentiation of RIF (in words) [10]: greater potentiation activity at lower concentrations |
| Nc1nc(-c2cc(NC(=O)Nc3ccc(F)c(-c4c[nH]c(N)n4)c3)ccc2F)c[nH]1 [Compound 9b] | 1 µg/mL | 32 fold | 0.5 µg/mL | 64 fold | 0.25 µg/mL | 128 fold | 0.125 µg/mL | 256 fold | > 200 µM | Clarithromycin (CLR) MIC ([1]; adjuvant at 5 μM, AB5075): 2 µg/mL; Fold Reduction of CLR MIC ([1]; adjuvant at 5 μM, AB5075): 16 fold |
| Nc1nc(-c2cccc(NC(=O)Nc3cccc(-c4c[nH]c(N)n4)c3F)c2F)c[nH]1 [Compound 9f] | 2 µg/mL | 16 fold | 1 µg/mL | 32 fold | 0.5 µg/mL | 64 fold | 0.25 µg/mL | 128 fold | > 200 µM |  |
| Nc1nc(-c2cc(F)cc(NC(=O)Nc3cc(F)cc(-c4c[nH]c(N)n4)c3)c2)c[nH]1 [Compound 9g] | 0.25 µg/mL | 128 fold | 0.125 µg/mL | 256 fold | 0.0625 µg/mL | 512 fold | ≤0.0625 µg/mL |  | > 200 µM | IC50, HepG2 cells [11]: > 256 µg/mL; IC50 ([11]; read-out: IC50, HepG2 cells): > 530 µM; CLR MIC ([1]; adjuvant at 2.5 μM, AB5075): 1 µg/mL; Fold Reduction of CLR MIC ([1]; adjuvant at 2.5 μM, AB5075): 32 fold; Clarithromycin (CLR) MIC ([1]; adjuvant at 5 μM, AB5075): 0.5 µg/mL; Fold Reduction of CLR MIC ([1]; adjuvant at 5 μM, AB5075): 64 fold; toxicity of compound alone (in words) [7]: no toxicity; fold decrease of RIF MIC [3]: 32 fold; activity in combination with AZM, ERM and RIF (in words) [3]: significant activity; lowering of CLR MIC values [9]: at least four-fold; potentiation of RIF (in words) [10]: greater potentiation activity at lower concentrations |
| Nc1nc(-c2ccc(NC(=O)Nc3ccc(F)c(-c4c[nH]c(N)n4)c3)cc2F)c[nH]1 [Compound 9h] |  |  |  |  | 4 µg/mL | 8 fold | 0.5 µg/mL | 64 fold | > 200 µM |  |
| Nc1nc(-c2ccc(F)c(NC(=O)Nc3ccc(-c4c[nH]c(N)n4)c(F)c3)c2)c[nH]1 [Compound 9i] |  |  |  |  |  |  | 8 µg/mL | 4 fold | > 200 µM |  |
| Nc1nc(-c2cc(F)cc(NC(=O)Nc3ccc(-c4c[nH]c(N)n4)c(F)c3)c2)c[nH]1 [Compound 9j] | 0.25 µg/mL | 128 fold | 0.125 µg/mL | 256 fold | 0.125 µg/mL | 256 fold | 0.0625 µg/mL | 512 fold | > 200 µM | Clarithromycin (CLR) MIC ([1]; adjuvant at 5 μM, AB5075): 1 µg/mL; Fold Reduction of CLR MIC ([1]; adjuvant at 5 μM, AB5075): 32 fold |
| Nc1nc(-c2ccc(NC(=O)Nc3ccc(-c4c[nH]c(N)n4)c(F)c3)cc2)c[nH]1 [Compound 9m] | 2 µg/mL | 16 fold | 1 µg/mL | 32 fold | 0.5 µg/mL | 64 fold | 0.0625 µg/mL | 512 fold | > 200 µM |  |
| Nc1nc(-c2ccc(NC(=O)Nc3ccc(-c4c[nH]c(N)n4)cc3F)c(F)c2)c[nH]1 [Compound 14a] |  |  |  |  |  |  | 4 µg/mL | 8 fold | > 200 µM |  |
| Nc1nc(-c2ccc(NC(=O)Nc3ccc(-c4c[nH]c(N)n4)c(Cl)c3)cc2Cl)c[nH]1 [Compound 14b] |  |  |  |  |  |  | 32 µg/mL | 1 fold | > 200 µM | CLR potentiation activity (in words) [1]: abolished all activity |

Further lines, with some results ahead:

| Clarithromycin (CLR) MIC ([1]; adjuvant at 7.5 μM, AB5075) | Fold Reduction of CLR MIC ([1]; adjuvant at 7.5 μM, AB5075) | Clarithromycin (CLR) MIC ([1]; adjuvant at 10 μM, AB5075) | Fold Reduction of CLR MIC ([1]; adjuvant at 10 μM, AB5075) | Clarithromycin (CLR) MIC ([1]; adjuvant at 20 μM, AB5075) | Fold Reduction of CLR MIC ([1]; adjuvant at 20 μM, AB5075) | Clarithromycin (CLR) MIC ([1]; adjuvant at 30 μM, AB5075) | Fold Reduction of CLR MIC ([1]; adjuvant at 30 μM, AB5075) | MIC [2] | Structure (SMILES) | also measured |
| --- | --- | --- | --- | --- | --- | --- | --- | --- | --- | --- |
| 8 µg/mL | 4 fold | 4 µg/mL | 8 fold | 0.5 µg/mL | 64 fold | 0.125 µg/mL | 256 fold |  | Nc1nc(-c2ccc(NC(=O)Nc3ccc(-c4c[nH]c(N)n4)cc3)cc2)c[nH]1 [Compound 3] | MIC against AB5075 (inherent anti-bacterial activity) [2]: > 200; activity in combination with AZM, ERM and RIF (in words) [3]: significant activity; Colistin MIC [4]: 2 µg/mL |
|  |  |  |  |  |  | 2 µg/mL | 16 fold | > 200 µM | Nc1nc(-c2ccc(NC(=O)Nc3ccc(-c4c[nH]c(N)n4)c(C(F)(F)F)c3)cc2C(F)(F)F)c[nH]1 [Compound 9c] | CLR potentiation activity (in words) [1]: abolished all activity |
|  |  |  |  |  |  | 8 µg/mL | 4 fold | 200 µM | COc1cc(-c2c[nH]c(N)n2)ccc1NC(=O)Nc1ccc(-c2c[nH]c(N)n2)cc1OC [Compound 9d] | CLR potentiation activity (in words) [1]: abolished all activity |
|  |  |  |  |  |  | 32 µg/mL | 1 fold | > 200 µM | Nc1nc(-c2ccc(F)c(NC(=O)Nc3cc(-c4c[nH]c(N)n4)ccc3F)c2)c[nH]1 [Compound 9e] |  |
| 1 µg/mL | 32 fold | 0.5 µg/mL | 64 fold | 0.0625 µg/mL | 512 fold | 0.0625 µg/mL | 512 fold | > 200 µM | Nc1nc(-c2cccc(NC(=O)Nc3cc(F)cc(-c4c[nH]c(N)n4)c3)c2)c[nH]1 [Compound 9l] |  |
|  |  |  |  |  |  | 32 µg/mL | 1 fold | > 200 µM | Cc1cc(-c2c[nH]c(N)n2)ccc1NC(=O)Nc1ccc(-c2c[nH]c(N)n2)cc1C [Compound 14c] | CLR potentiation activity (in words) [1]: abolished all activity |
